# Several values for one entry are separate records, joined by “and”; a condition that tells them apart may be missing. Equal entries are not always repeated. Activity calls are given as the source filed them. The calls are words filed in the database; no cut-off is given here.
# Assays:
# [1] = system: Mus musculus; assay: Reduction of mesenteric fat in ddY mouse at 10 mg/kg/day, po after 14 to 15 days; format: functional
# [2] = system: Mus musculus; assay: Reduction of epididymal fat in ddY mouse at 10 mg/kg/day, po after 14 to 15 days; format: functional
# [3] = system: Mus musculus; assay: Effect on liver triglyceride in ddY mouse at 10 mg/kg/day, po after 14 to 15 days; format: functional
# [4] = system: Mus musculus; assay: Effect on free fatty acid in ddY mouse plasma at 10 mg/kg/day, po after 14 to 15 days; format: functional
# [5] = system: Mus musculus; assay: Effect on D-glucose level in ddY mouse plasma at 0.1 to 10 mg/kg/day for 15 days; format: functional
# [6] = system: Mus musculus; assay: Effect on total plasma cholesterol in ddY mouse at 10 mg/kg/day, po after 14 to 15 days; format: functional
# [7] = system: Mus musculus; assay: Effect on liver weight in ddY mouse at 10 mg/kg/day, po after 14 to 15 days; format: functional
# [8] = system: Mus musculus; assay: Reduction of visceral fat in ddY mouse at 10 mg/kg/day, po after 14 to 15 days; format: functional
# [9] = system: Mus musculus; assay: Reduction of paranephric fat in ddY mouse at 10 mg/kg/day, po after 14 to 15 days; format: functional
# [10] = system: Mus musculus; assay: Effect on food intake in ddY mouse at 10 mg/kg/day, po after 14 to 15 days; format: functional
# [11] = system: Mus musculus; assay: Effect on plasma triglyceride in ddY mouse at 10 mg/kg/day, po after 14 to 15 days; format: functional
# [12] = system: Mus musculus; assay: Reduction of mesenteric fat in ddY mouse at 1 mg/kg/day, po after 14 to 15 days; format: functional
# [13] = system: Liver; assay: Increase in expression of PPAR alpha mRNA level in liver tissue of orally dosed ddY mouse, after 24 hrs; format: functional, organism-based
# [14] = system: Mus musculus; assay: Reduction of mesenteric fat in ddY mouse at mg/kg/day, po after 14 to 15 days; format: functional
# [15] = system: Mus musculus; assay: Effect on plasma triglyceride in ddY mouse at 1 mg/kg/day, po after 14 to 15 days; format: functional
# [16] = system: Mus musculus; assay: Reduction of epididymal fat in ddY mouse at 12.5 mg/kg/day, po after 14 to 15 days; format: functional
# [17] = system: Mus musculus; assay: Reduction of epididymal fat in ddY mouse at 1 mg/kg/day, po after 14 to 15 days; format: functional
# [18] = system: Mus musculus; assay: Effect on total plasma cholesterol in ddY mouse at 12.5 mg/kg/day, po after 14 to 15 days; format: functional
# [19] = system: Mus musculus; assay: Effect on free fatty acid in ddY mouse plasma at 50 mg/kg/day, po after 14 to 15 days; format: functional
# [20] = system: Mus musculus; assay: Effect on plasma triglyceride in ddY mouse at 12.5 mg/kg/day, po after 14 to 15 days; format: functional
# [21] = system: Mus musculus; assay: Effect on food intake in ddY mouse at 1 mg/kg/day, po after 14 to 15 days; format: functional
# [22] = system: Mus musculus; assay: Effect on food intake in ddY mouse at 0.1 mg/kg/day, po after 14 to 15 days; format: functional
# [23] = system: Mus musculus; assay: Reduction of mesenteric fat in ddY mouse at 50 mg/kg/day, po after 14 to 15 days; format: functional
# [24] = system: Mus musculus; assay: Effect on liver triglyceride in ddY mouse at 12.5 mg/kg/day, po after 14 to 15 days; format: functional
# [25] = system: Mus musculus; assay: Reduction of paranephric fat in ddY mouse at 1 mg/kg/day, po after 14 to 15 days; format: functional
# [26] = system: Mus musculus; assay: Reduction of visceral fat in ddY mouse at 1 mg/kg/day, po after 14 to 15 days; format: functional
# [27] = system: Mus musculus; assay: Effect on liver weight in ddY mouse at 25 mg/kg/day, po after 14 to 15 days; format: functional
# [28] = system: Mus musculus; assay: Effect on liver triglyceride in ddY mouse at 50 mg/kg/day, po after 14 to 15 days; format: functional
# [29] = system: Mus musculus; assay: Reduction of paranephric fat in ddY mouse at 0.1 mg/kg/day, po after 14 to 15 days; format: functional
# [30] = system: Mus musculus; assay: Reduction of visceral fat in ddY mouse at 0.1 mg/kg/day, po after 14 to 15 days; format: functional
# [31] = system: Mus musculus; assay: Reduction of paranephric fat in ddY mouse at 50 mg/kg/day, po after 14 to 15 days; format: functional
# [32] = system: Mus musculus; assay: Reduction of epididymal fat in ddY mouse at 50 mg/kg/day, po after 14 to 15 days; format: functional
# [33] = system: Mus musculus; assay: Effect on total plasma cholesterol in ddY mouse at 1 mg/kg/day, po after 14 to 15 days; format: functional
# [34] = system: Mus musculus; assay: Effect on food intake in ddY mouse at 12.5 mg/kg/day, po after 14 to 15 days; format: functional
# [35] = system: Mus musculus; assay: Effect on total plasma cholesterol in ddY mouse at 50 mg/kg/day, po after 14 to 15 days; format: functional
# [36] = system: Mus musculus; assay: Reduction of visceral fat in ddY mouse at 12.5 mg/kg/day, po after 14 to 15 days; format: functional
# [37] = system: Mus musculus; assay: Effect on free fatty acid in ddY mouse plasma at 12.5 mg/kg/day, po after 14 to 15 days; format: functional
# [38] = system: Mus musculus; assay: Effect on liver triglyceride in ddY mouse at 1 mg/kg/day, po after 14 to 15 days; format: functional
# [39] = system: Mus musculus; assay: Reduction of mesenteric fat in ddY mouse at 0.1 mg/kg/day, po after 14 to 15 days; format: functional
# [40] = system: Mus musculus; assay: Effect on liver weight in ddY mouse at 1 mg/kg/day, po after 14 to 15 days; format: functional
# [41] = system: Mus musculus; assay: Reduction of visceral fat in ddY mouse at 50 mg/kg/day, po after 14 to 15 days; format: functional
# [42] = system: Mus musculus; assay: Effect on free fatty acid in ddY mouse plasma at 1 mg/kg/day, po after 14 to 15 days; format: functional
# [43] = system: Mus musculus; assay: Effect on liver triglyceride in ddY mouse at 0.1 mg/kg/day, po after 14 to 15 days; format: functional
# [44] = system: Mus musculus; assay: Reduction of paranephric fat in ddY mouse at 25 mg/kg/day, po after 14 to 15 days; format: functional
# [45] = system: Mus musculus; assay: Reduction of epididymal fat in ddY mouse at 0.1 mg/kg/day, po after 14 to 15 days; format: functional
# [46] = system: Mus musculus; assay: Reduction of paranephric fat in ddY mouse at 12.5 mg/kg/day, po after 14 to 15 days; format: functional
# [47] = system: Mus musculus; assay: Effect on liver weight in ddY mouse at 12.5 mg/kg/day, po after 14 to 15 days; format: functional
# [48] = system: Mus musculus; assay: Effect on liver weight in ddY mouse at 0.1 mg/kg/day, po after 14 to 15 days; format: functional
# [49] = system: Mus musculus; assay: Reduction of mesenteric fat in ddY mouse at 25 mg/kg/day, po after 14 to 15 days; format: functional
# [50] = system: Mus musculus; assay: Effect on total plasma cholesterol in ddY mouse at 0.1 mg/kg/day, po after 14 to 15 days; format: functional
# [51] = system: Mus musculus; assay: Effect on food intake in ddY mouse at 50 mg/kg/day, po after 14 to 15 days; format: functional
# [52] = system: Mus musculus; assay: Effect on food intake in ddY mouse at 25 mg/kg/day, po after 14 to 15 days; format: functional
# [53] = system: Mus musculus; assay: Reduction of epididymal fat in ddY mouse at 25 mg/kg/day, po after 14 to 15 days; format: functional
# [54] = system: Mus musculus; assay: Reduction of visceral fat in ddY mouse at 25 mg/kg/day, po after 14 to 15 days; format: functional
# [55] = system: Mus musculus; assay: Effect on liver weight in ddY mouse at 50 mg/kg/day, po after 14 to 15 days; format: functional
# [56] = system: Mus musculus; assay: Effect on plasma triglyceride in ddY mouse at 50 mg/kg/day, po after 14 to 15 days; format: functional
# [57] = system: Mus musculus; assay: Effect on free fatty acid in ddY mouse plasma at 0.1 mg/kg/day, po after 14 to 15 days; format: functional
# [58] = system: Mus musculus; assay: Effect on plasma triglyceride in ddY mouse at 0.1 mg/kg/day, po after 14 to 15 days; format: functional
compound,measurement,setting,value
O=c1c(O[C@@H]2O[C@H](CO)[C@@H](O)[C@H](O)[C@H]2O)c(-c2ccc(O)cc2)oc2cc(O)cc(O)c12 [ASTRAGALIN],Activity,[1],680 mg
same,Activity,[2],797 mg
same,Activity,[3],64.8 mg/g
same,Activity,[4],1.7 mEq/L
same,Activity,[5],99 mg/dL
same,Activity,[6],119 mg/dL
same,Activity,[7],1640 mg
same,Activity,[8],1770 mg
same,Activity,[9],293 mg
same,Activity,[10],4.34 g/day
same,Activity,[11],113 mg/dL
O=C(O)/C=C/c1ccc(O)cc1 [COUMARIC ACID],Activity,[1],761 mg
same,Activity,[2],847 mg
same,Activity,[3],58.2 mg/g
same,Activity,[4],1.67 mEq/L
same,Activity,[5],106 mg/dL
same,Activity,[6],143 mg/dL
same,Activity,[7],1640 mg
same,Activity,[8],1920 mg
same,Activity,[9],307 mg
same,Activity,[10],4.3 g/day
same,Activity,[11],162 mg/dL
O=c1c(O)c(-c2ccc(O)cc2)oc2cc(O)cc(O)c12 [KAEMPFEROL],Activity,[1],804 mg
same,Activity,[2],896 mg
same,Activity,[3],60.3 mg/g
same,Activity,[4],1.72 mEq/L
same,Activity,[5],110 mg/dL
same,Activity,[6],149 mg/dL
same,Activity,[7],1520 mg
same,Activity,[8],2120 mg
same,Activity,[9],418 mg
same,Activity,[10],4.2 g/day
same,Activity,[11],139 mg/dL
O=C(/C=C/c1ccc(O)cc1)OC[C@H]1O[C@@H](Oc2c(-c3ccc(O)cc3)oc3cc(O)cc(O)c3c2=O)[C@H](O)[C@@H](O)[C@@H]1O [TILIROSIDE],Activity,[12],509 mg
same,Activity,[13],Active
same,Activity,[14],745 mg
same,Activity,[15],95 mg/dL
same,Activity,[16],1140 mg
same,Activity,[17],407 mg
same,Activity,[18],156 mg/dL
same,Activity,[19],1.44 mEq/L
same,Activity,[20],169 mg/dL
same,Activity,[21],5 g/day
same,Activity,[22],4.7 g/day
same,Activity,[23],812 mg
same,Activity,[24],60.4 mg/g
same,Activity,[25],141 mg
same,Activity,[1],516 mg and 561 mg
same,Activity,[26],1060 mg
same,Activity,[27],1590 mg and 1680 mg
same,Activity,[2],350 mg and 626 mg
same,Activity,[28],63.9 mg/g
same,Activity,[29],284 mg
same,Activity,[30],1660 mg
same,Activity,[31],330 mg
same,Activity,[32],811 mg
same,Activity,[33],102 mg/dL
same,Activity,[34],5.7 g/day
same,Activity,[35],144 mg/dL
same,Activity,[36],2240 mg
same,Activity,[37],1.5 mEq/L
same,Activity,[38],30.8 mg/g
same,Activity,[39],662 mg
same,Activity,[40],1390 mg
same,Activity,[41],1950 mg
same,Activity,[42],1.01 mEq/L
same,Activity,[43],46.7 mg/g
same,Activity,[44],394 mg and 194 mg
same,Activity,[45],716 mg
same,Activity,[5],93 mg/dL
same,Activity,[46],350 mg
same,Activity,[47],1590 mg
same,Activity,[48],1490 mg
same,Activity,[49],738 mg and 508 mg
same,Activity,[50],108 mg/dL
same,Activity,[51],5 g/day
same,Activity,[52],5 g/day and 5.4 g/day
same,Activity,[53],918 mg and 558 mg
same,Activity,[54],2050 mg and 1260 mg
same,Activity,[55],1560 mg
same,Activity,[7],1500 mg
same,Activity,[8],998 mg and 1450 mg
same,Activity,[56],161 mg/dL
same,Activity,[57],1.17 mEq/L
same,Activity,[9],132 mg and 266 mg
same,Activity,[10],5.3 g/day and 4.22 g/day
same,Activity,[58],119 mg/dL

# Reference: ChEMBL document CHEMBL1147949, “Potent anti-obese principle from Rosa canina: structural requirements and mode of action of trans-tiliroside” (2007)
